From patent US8110681B2, “Compounds for the treatment of spinal muscular atrophy and other uses” (The United States of America as represented by the …, priority 2006, dated 2012)
Read-outs that look alike come from different tables or passages of the source.

System: SMN2-linked luciferase-reporter gene construct
Assay: SMN splice reporter assay (SMN2-linked luciferase reporter, Example 10)
Type: cell-based
Settings: for maximal fold induction: read-out: SMN Splice Reporter Assay (Example 10) Avg MaxFold Increase
Summary of the method: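 Cervical carcinoma cells stably carrying an SMN2–luciferase splice reporter, in which luciferase is in frame only when SMN2 exon 7 is included, were treated with compound. Luciferase activity was read and expressed as fold increase over untreated transformed cells.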

[1] = SMN2-linked luciferase reporter, average
[2] = maximum fold increase of reporter signal, average
[3] = SMN2-linked luciferase reporter, average maximum fold increase

SMILES	EC50 [1] [µM]	maximal fold induction [2]	maximal fold induction [3]
CC(CN)c1ccc(N2Cc3ccccc3C2=O)cc1 (stereo not drawn) [ALB-114604]	0.303	1.39	–
CNc1cccc2c1C(=O)N(c1ccc(C(C)C)cc1)C2 [ALB-117905]	0.414	1.55	–
CC(C)c1ccc(N2Cc3ccc4c(c3C2=O)OCO4)cc1 [ALB-117751]	0.027	–	1.34
CCCc1ccc2c(c1)CN(c1ccc(C(C)C(=O)O)cc1)C2=O (stereo not drawn) [ALB-113564]	–	1.05	–
C/C=C/c1ccc2c(c1)C(=O)N(c1ccc(C(C)C(=O)O)cc1)C2 (stereo not drawn) [ALB-114086]	0.088	1.99	–
CC(C(=O)O)c1ccc(N2Cc3cccc(C#N)c3C2=O)cc1 (stereo not drawn) [ALB-112518]	–	1.12	–
CC(C(=O)O)c1ccc(N2Cc3c(Cl)cccc3C2=O)cc1 (stereo not drawn) [ALB-111763]	13.9	1.17	–
CC(C(=O)OC(C)(C)C)c1ccc(N2Cc3ccc(Cl)cc3C2=O)cc1 (stereo not drawn) [ALB-111740]	2.02	1.49	–
CC(C(=O)O)c1ccc(N2Cc3ccc(C#N)cc3C2=O)cc1 (stereo not drawn) [ALB-112478]	2.04	1.23	–
CC(C(=O)O)c1ccc(N2Cc3cc(-c4ccccc4)ccc3C2=O)cc1 (stereo not drawn) [ALB-111993]	2.95	1.54	–
COc1cc2c(cc1OC)C(=O)N(c1ccc(C(C)C(=O)O)cc1)C2 (stereo not drawn) [ALB-114437]	–	1.2	–
CC(C(=O)NC#N)c1ccc(N2Cc3ccccc3C2=O)cc1 (stereo not drawn) [ALB-111746]	–	1.11	–
CC(C(=O)O)c1ccc(N2Cc3c(cccc3-c3ccccc3)C2=O)cc1 (stereo not drawn) [ALB-112220]	–	1.22	–
CC(C(=O)OC(C)(C)C)c1ccc(N2Cc3ccc(-c4cccs4)cc3C2=O)cc1 (stereo not drawn) [ALB-112474]	–	1.18	–
CC(=O)N(C)c1ccc2c(c1)C(=O)N(c1ccc(C(C)C)cc1)C2 [ALB-117047]	0.269	–	1.39
Cc1ccc(N2Cc3ccccc3C2=O)cc1C [ALB-115711]	0.274	1.33	–
CC(C(=O)OC(C)(C)C)c1ccc(N2Cc3cccc(N)c3C2=O)cc1 (stereo not drawn) [ALB-112061]	3.74	1.27	–
CC(=O)c1ccc2c(c1)C(=O)N(c1ccc(C(C)C(=O)O)cc1)C2 (stereo not drawn) [ALB-113387]	0.05	1.18	–
Cc1ccc(-c2cccc3c2C(=O)N(c2ccc(C(C)C(=O)O)cc2)C3)cc1 (stereo not drawn) [ALB-112174]	–	1.18	–
CCN(C)C(=O)Nc1ccc2c(c1)C(=O)N(c1ccc(C(C)C)cc1)C2 [ALB-118732]	–	–	1.15
CC(C(=O)O)c1ccc(N2Cc3c(cccc3-c3ccc(Cl)c(Cl)c3)C2=O)cc1 (stereo not drawn) [ALB-112226]	26.2	1.44	–
CC(C(=O)O)c1ccc(N2Cc3c(cccc3-c3cccs3)C2=O)cc1 (stereo not drawn) [ALB-112225]	–	1.07	–

SMILES	EC50 [1] [µM]	maximal fold induction [2]	maximal fold induction [3]
CCCc1cccc2c1C(=O)N(c1ccc(C(C)C(=O)O)cc1)C2 (stereo not drawn) [ALB-113756]	15.7	1.33	–
CC(C(=O)O)c1ccc(N2Cc3ccc(OCC4CC4)cc3C2=O)cc1 (stereo not drawn) [ALB-115500]	0.115	1.54	–
CC(C(=O)O)c1ccc(N2Cc3ccccc3C2=O)c(-c2ccccc2)c1 (stereo not drawn) [ALB-112165]	–	1.15	–
CC(C(=O)OC(C)(C)C)c1ccc(N2Cc3c(cccc3-c3cncnc3)C2=O)cc1 (stereo not drawn) [ALB-112349]	–	1.06	–
CC(C(=O)O)c1ccc(N2Cc3ccc(OC(F)F)cc3C2=O)cc1 (stereo not drawn) [ALB-119335]	0.051	–	1.54
CC(C(=O)O)c1ccc(N2CC3=C(CCCC3)C2=O)cc1 (stereo not drawn) [ALB-112951]	0.279	1.79	–
CC(C(=O)NS(=O)(=O)N(C)C)c1ccc(N2Cc3ccccc3C2=O)cc1 (stereo not drawn) [ALB-111749]	14	1.16	–
CC(C(=O)O)c1ccc(N2Cc3cc4ccsc4cc3C2=O)cc1 (stereo not drawn) [ALB-112228]	0.669	1.27	–
O=C1c2cc(Br)ccc2CN1c1ccc(C2CCCCC2)cc1 [ALB-115590]	–	1.11	–
Cc1ccc(N2Cc3ccc(OC(F)F)cc3C2=O)cc1 [ALB-119515]	0.146	–	1.46
CC(C)Oc1ccc2c(c1)C(=O)N(c1ccc(C(C)C(=O)O)cc1)C2 (stereo not drawn) [ALB-113492]	0.024	1.67	–
CC(C(=O)O)c1ccc(N2Cc3ccc(OC4CCCC4)cc3C2=O)cc1 (stereo not drawn) [ALB-113493]	0.081	1.89	–
CC(C(=O)O)c1ccc(N2Cc3cccc(-c4cccnc4)c3C2=O)cc1 (stereo not drawn) [ALB-112157]	20.5	1.2	–
COc1ccc(-c2cccc3c2CN(c2ccc(C(C)C(=O)O)cc2)C3=O)cc1 (stereo not drawn) [ALB-112222]	–	1.42	–
CC(=O)c1ccc(N2Cc3ccccc3C2=O)cc1 [ALB-112360]	0.424	1.14	–
CC(C(=O)O)c1ccc(N2Cc3ccc(NC(=O)c4ccccc4)cc3C2=O)cc1 (stereo not drawn) [ALB-111986]	–	1.06	–
CC(C(=O)O)c1ccc(N2Cc3cc(OCC(F)(F)F)ccc3C2=O)cc1 (stereo not drawn) [ALB-113964]	–	1.08	–
CC(C)Oc1ccc2c(c1)CN(c1ccc(C(C)C(=O)O)cc1)C2=O (stereo not drawn) [ALB-113834]	–	1.1	–
CC(C(=O)NO)c1ccc(N2Cc3ccccc3C2=O)cc1 (stereo not drawn) [ALB-111748]	2.27	1.38	–
CCc1ccc2c(c1)C(=O)N(c1ccc(C(C)C(=O)OC(C)(C)C)cc1)C2 (stereo not drawn) [ALB-113211]	0.786	1.37	–
COc1cc2c(c(OC)c1Br)C(=O)N(c1ccc(C(C)C)cc1)C2 [ALB-117901]	–	1.07	–
CCC(C)c1ccc2c(c1)C(=O)N(c1ccc(C(C)C(=O)O)cc1)C2 (stereo not drawn) [ALB-114088]	0.078	2.19	–

SMILES	EC50 [1] [µM]	maximal fold induction [2]	maximal fold induction [3]
CC(C(=O)O)c1ccc(N2Cc3ccc(NS(C)(=O)=O)cc3C2=O)cc1 (stereo not drawn) [ALB-112071]	–	1.07	–
CC(C(=O)Nc1ccccc1)c1ccc(N2Cc3ccccc3C2=O)cc1 (stereo not drawn) [ALB-112075]	0.578	1.25	–
CCCCCc1ccc2c(c1)C(=O)N(c1ccc(C(C)C(=O)O)cc1)C2 (stereo not drawn) [ALB-113388]	1.11	1.77	–
COc1ccc(-c2ccc3c(c2)C(=O)N(c2ccc(C(C)C(=O)O)cc2)C3)cc1 (stereo not drawn) [ALB-112448]	6.19	1.55	–
O=C1c2ccccc2CN1c1ccc(C2(C(=O)O)CC2)cc1 [ALB-112434]	–	1.28	–
CCC(C(=O)O)c1ccc(N2Cc3ccccc3C2=O)cc1 (stereo not drawn) [ALB-112433]	4.19	1.32	–
CC(C(=O)O)c1ccc(N2Cc3cc(-c4cncnc4)ccc3C2=O)cc1 (stereo not drawn) [ALB-111994]	4.18	1.38	–
COc1cc2c(cc1F)CN(c1ccc(C(C)C(=O)O)cc1)C2=O (stereo not drawn) [ALB-119048]	0.255	1.54	–
CC(C(=O)O)c1ccc(N2Cc3ccccc3C2=O)cc1-c1ccc(Cl)c(Cl)c1 (stereo not drawn) [ALB-111999]	–	1.05	–
CC(C)c1ccc(N2Cc3ccc4c(c3C2=O)OCCO4)cc1 [ALB-118160]	0.046	–	1.43
CCCCc1ccc2c(c1)CN(c1ccc(C(C)C(=O)O)cc1)C2=O (stereo not drawn) [ALB-113835]	–	1.15	–
Cc1ccc2c(c1)C(=O)N(c1ccc(C(C)C(=O)O)cc1)C2 (stereo not drawn) [ALB-112954]	0.33	1.62	–
CC(C(=O)O)c1ccc(N2Cc3ccc(N4CCCC4)cc3C2=O)cc1 (stereo not drawn) [ALB-114739a]	0.058	1.55	–
CC(C(=O)O)c1ccc(N2Cc3ccccc3C2=O)cc1-c1ccc(Cl)cc1 (stereo not drawn) [ALB-112329]	–	1.09	–
CC(C(=O)OC(C)(C)C)c1ccc(N2Cc3ccccc3C2=O)c(-c2cncnc2)c1 (stereo not drawn) [ALB-112194]	–	1.1	–
Cc1ccc(-c2cccc3c2CN(c2ccc(C(C)C(=O)O)cc2)C3=O)cc1 (stereo not drawn) [ALB-112221]	–	1.33	–
CCN(CC)c1ccc2c(c1)C(=O)N(c1ccc(C(C)C)cc1)C2 [ALB-116639]	0.121	1.19	–
CC(C(=O)OC(C)(C)C)c1ccc(N2Cc3cccc([N+](=O)[O-])c3C2=O)cc1 (stereo not drawn) [ALB-111951]	–	1.2	–
COc1ccc(-c2cc(N3Cc4ccccc4C3=O)ccc2C(C)C(=O)O)cc1 (stereo not drawn) [ALB-112002]	–	1.08	–
CC(C(=O)OC(C)(C)C)c1ccc(N2Cc3cc(-c4cccs4)ccc3C2=O)cc1 (stereo not drawn) [ALB-111992]	–	1.01	–
CC(C(=O)O)c1ccc(N2Cc3ccccc3C2=O)c(-c2ccc(Cl)c(Cl)c2)c1 (stereo not drawn) [ALB-112161]	–	1.1	–
